Data on 24 molecules can be found in PMC8341946, “Wheat pathogen Zymoseptoria tritici N-myristoyltransferase inhibitors: on-target antifungal activity and an unusual metabolic defense mechanism” (RSC Chemical Biology, 2020).

Assay [1] deals with HsNMT1. The settings on record: cited from earlier work; for IC50: Table S1, ref SI refs 1-7 as given with each inhibitor name; for Ki: Table S1, cells marked (Ki), ref SI refs 3, 5, 6 as given with each inhibitor name, read-out: HsNMT1 IC50 (µM), value marked (Ki).
For assay [2], the target named is T1, ZtNMTΔ99 (Zymoseptoria tritici, UniProt F9XBB7). Kind of assay: ZtNMT IC50 assay (CPM, enzymatic). It counts as biochemical. The source says: As the peptide substrate we used an octapeptide derived from the N-terminus of F9X1I2 (Z. tritici predicted homolog of ADP-ribosylation factor 1, ARF1), which we hypothesized would be natively myristoylated in vivo.
T1 sequence (F9XBB7 entry or part of it, stated change not applied): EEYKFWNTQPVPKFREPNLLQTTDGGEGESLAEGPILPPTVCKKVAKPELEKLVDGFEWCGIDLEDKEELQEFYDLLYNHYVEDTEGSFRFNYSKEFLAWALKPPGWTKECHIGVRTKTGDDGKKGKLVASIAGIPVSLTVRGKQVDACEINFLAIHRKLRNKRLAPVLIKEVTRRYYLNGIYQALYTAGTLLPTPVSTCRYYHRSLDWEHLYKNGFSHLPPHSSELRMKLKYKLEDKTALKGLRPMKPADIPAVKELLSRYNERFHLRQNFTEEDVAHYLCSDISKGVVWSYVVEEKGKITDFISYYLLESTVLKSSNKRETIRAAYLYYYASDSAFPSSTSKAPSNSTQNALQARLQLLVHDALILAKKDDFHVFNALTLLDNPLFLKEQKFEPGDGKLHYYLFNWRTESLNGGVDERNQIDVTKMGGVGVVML
Fig. 1 ZtNMT enzymatic activity and structure. […] The CPM reagent enables fluorogenic readout of the reaction rate based on the generation of coenzyme A thiol. […] (D) ZtNMT homology model generated using Swiss Model[26] based on a reported A. fumigatus NMT X-Ray structure 4UWI[27] was aligned to HsNMT1 (PDB: 5MU6, in transparent grey). […] (E) A map of ligand interactions between docked IMP-1088 and its induced fit generated ZtNMT receptor protein residues.
The assay was adapted from a previous publication.[25] […] Accumulation of fluorescence signal at 470 nm was measured at one-minute intervals during the first 20 minutes of the reaction. Rates of the enzymatic reaction were calculated from the linear range of the resulting fluorescence over time curve using GraphPad Prizm 5. Then, sigmoidal dose–response (variable curve) fitting was applied to the data to obtain IC50 values. The assay was performed with at least 2 replicates, mean and confidence intervals are reported.

The test system of assay [3] is Z. tritici. Kind of assay: Anti-proliferative EC50 assay (MTS viability). Format: cell-based, Zymoseptoria tritici.
Assay [4] concerns the target T1, ZtNMTΔ99. It counts as biochemical. The following applies: in the presence of 32 μM myristoyl-CoA; read-out: KM(peptide).
Description: ZtNMT characterization. KM and Vmax constants measurements were performed at two
ZtNMT concentrations: 100 ng/ml and 200 ng/ml.
B) ZtARF1 Km and Vmax measured
The kinetic constants for both NMT substrates in
Assay [5] concerns Z. tritici culture. Kind of assay: Z. tritici culture viability after 4 h treatment (microscope). It counts as cell-based, Zymoseptoria tritici. The following applies: for culture phenotype under microscope: 4 h.
Where [6] appears, read: Table S1, enzymatic CPM assay, read-out: IC50.
Where [7] appears, read: Table S1, viability MTS assay, read-out: EC50.

Where two headings read alike, the source gives them in different places.

Consider `CNCc1nnc2ccc(-c3ccc(F)cc3OCCc3c(C(=O)N(C)C)nn(C)c3C)cn12` [IMP-1094], for which the IC50 is 0.007 µM in assay [1] and 0.086 µM in assay [2] (setting [6]).

`Cc1nn(C)c(C)c1Cc1nnc(-c2cc(Cl)ccc2OC2CCNCC2)o1` [IMP-329]: the Ki in assay [1] was 0.02 µM. Further, in assay [3] (setting [7]), the EC50 is 280 µM. Further, the half-maximal inhibitory concentration (IC50) in assay [2] (setting [6]) is 0.87 µM.

`CNCCc1cnc2ccc(-c3ccc(F)cc3OCCc3c(C(=O)N(C)C)nn(C)c3C)cn12` [IMP-1124]: the IC50 in assay [1] is 0.0007 µM; in assay [2] (setting [6]), 0.013 µM.

Take `CNCc1nn(C)c2ccc(-c3ccc(F)c(F)c3OCCc3c(C)nn(C)c3C)cc12` [IMP-1089]: the IC50 in assay [1] is < 0.001 µM; in assay [2] (setting [6]), 0.0067 µM. Further, the EC50 in assay [3] (setting [7]) was 46 µM.

In the case of `Cc1nn(C)c(C)c1CCOc1cc(F)ccc1-c1ccc2nnc(C3CCCN3)n2c1` (centres unmarked) [IMP-1090], the IC50 in assay [1] was 2.59 µM; in assay [2] (setting [6]), 22 µM.

In the case of `Cc1nn(C)c(C)c1CCOc1c(F)cccc1-c1ccc2c(c1)c(CN(C)C)nn2C` [IMP-1031], the IC50 in assay [1] is 0.0046 µM; in assay [2] (setting [6]) it was 0.016 µM. Besides, the EC50 in assay [3] (setting [7]) was found to be 51 µM.

For the molecule `Cc1nn(C)c(C)c1CCOc1c(F)cccc1-c1ccc2ncc(CN(C)C)n2c1` [IMP-1131], the IC50 in assay [1] is 0.0024 µM; in assay [2] (setting [6]), 2.4 µM.

As to `Cc1nn(C)c(C)c1NS(=O)(=O)c1c(Cl)cc(-c2ccnc(N3CCNCC3)c2)cc1Cl` [IMP-366, reference compound], in assay [3] (Zymoseptoria tritici, Table S1, viability MTS assay), the concentration giving a half-maximal response (EC50) amounted to 110 µM. This molecule also gave an IC50 in assay [2] of 0.05 µM.

For the molecule `COc1cc(CCOC(=O)c2sc3ccccc3c2OC2CCNCC2)cc(OC)c1` [IMP-277], in assay [1], the Ki was 0.031 µM. Moreover, the IC50 in assay [2] (setting [6]) is > 300 µM.

`Cc1c(CCOc2cc(F)ccc2-c2ccc3ncc(CN(C)C)n3c2)c(C(=O)N(C)C)nn1C` [IMP-1134]: the IC50 in assay [1] and in assay [2] (setting [6]) was < 0.001 µM throughout. Also, the concentration giving a half-maximal response (EC50) in assay [3] (setting [7]) turned out to be 27 µM.

Turning to `CNCc1cnc2ccc(-c3ccc(F)cc3OCCc3c(C#N)nn(C)c3C)cn12` [IMP-1195], the IC50 in assay [1] and in assay [2] (setting [6]) was < 0.001 µM throughout.

Consider `CNCc1nnc2ccc(-c3ccc(F)cc3OCCc3c(C(F)(F)F)nn(C)c3C)cn12` [IMP-1111], for which the values for the IC50 in assay [1] and in assay [2] (setting [6]) were 0.0065 µM and 0.7 µM, respectively.

As to `CNCc1nnc2ccc(-c3ncccc3OCCc3c(C)nn(C)c3C)cn12` [IMP-1093], the IC50 in assay [1] was 7.39 µM; in assay [2] (setting [6]), > 300 µM.

For `CNCc1nnc2ccc(-c3ccc(F)cc3OCCc3c(C(=O)N4CCCC4)nn(C)c3C)cn12` [IMP-1112], the IC50 in assay [1] is 0.0198 µM; in assay [2] (setting [6]), 0.42 µM.

For the molecule `Cc1nn(C)c(C)c1CCOc1c(F)cccc1-c1ccc2c(c1)c(CN)nn2C` [IMP-1034], the IC50 was 0.005 µM in assay [1] and 0.032 µM in assay [2] (setting [6]).

On to “NH2-GLTFSKLF-OH (H-GLTFSKLF-OH) [ZtARF1 peptide, octapeptide substrate derived from the N-terminus of F9X1I2 (Z. tritici ARF1 homolog)]”, for which the Km in assay [4] came out at 2.73 µM.

Turning to `Cc1c(CCOc2cc(F)ccc2-c2ccc3nnc(C4CNC4)n3c2)c(C(=O)N(C)C)nn1C` [IMP-1100], the results for the IC50 in assay [1] and in assay [2] (setting [6]) were 0.001 µM and 0.016 µM, respectively. Moreover, the EC50 in assay [3] (setting [7]) was > 500 µM.

Regarding `CNCCc1cnc2ccc(-c3ccc(F)cc3OCCc3c(CO)nn(C)c3C)cn12` [IMP-1185], the results for the IC50 in assay [1] and in assay [2] (setting [6]) were 0.0258 µM and 4 µM, respectively.

`CNCc1nn(C)c2ccc(-c3cccc(F)c3OCCc3c(C)nn(C)c3C)cc12` [IMP-1036]: the IC50 in assay [1] is 0.016 µM; in assay [2] (setting [6]), 0.03 µM.

`Cc1nn(C)c(C)c1CCOc1cc(F)ccc1-c1ccc2nnc(C3CNC3)n2c1` [IMP-1091]: the IC50 in assay [1] was 0.056 µM; in assay [2] (setting [6]), 2.1 µM.

For the molecule `CNCc1cnc2ccc(-c3ccc(F)cc3OCCc3c(C(N)=O)nn(C)c3C)cn12` [IMP-1179], the results for the IC50 in assay [1] and in assay [2] (setting [6]) were 0.0056 µM and 0.28 µM, respectively.

For the molecule `CNCc1cnc2ccc(-c3ccc(F)cc3OCCc3c(C)nn(C)c3C)cn12` [IMP-1097], the IC50 is 0.0019 µM in assay [1] and 0.2 µM in assay [2] (setting [6]).

Take `Cc1nn(C)c(C)c1CCOc1cc(F)ccc1-c1ccc2[nH]nc(CN(C)C)c2c1` [IMP-917]: the IC50 is 0.013 µM in assay [1] and 0.16 µM in assay [2] (setting [6]).

Turning to `N[C@H](CC(=O)N1C[C@H](CO)[C@@H](c2ccc(Cl)c(NC(=O)Cc3ccc(F)cc3)c2)C1)Cc1ccc(Cl)cc1` [IMP-162], the EC50 in assay [3] (Zymoseptoria tritici, Fig. 1B, Z. tritici cell viability, MTS, 40 h, read-out: EC50) was ~20 µM; in assay [3] (Zymoseptoria tritici, Table S1, viability MTS assay, read-out: EC50), 18 µM. Also, 1.9 µM corresponded to half-maximal inhibition in assay [2] (IC50). In addition, the “culture phenotype under microscope” value in assay [5] (24 μM and 48 μM) is reported as “phenotype consistent with cell death”; in assay [5] (96 μM), “most cells appear dead”. Moreover, the “effect on cell viability” value in assay [5] (4 h treatment, logarithmic growth phase) is on record as “kill Z. tritici culture”.

For orientation: IC50 means the point on the concentration scale where inhibition reaches its midpoint. As usually defined, the Ki is the dissociation constant of the complex between target and ligand, obtained from inhibition or displacement. Broadly, the EC50 is the concentration that produces a half-maximal response. A word on the Km: it is the substrate concentration at which the rate is half of its maximum.
